Data as given in patent US9340573B2, “Azaindolines” (Hoffmann-La Roche Inc., priority 2012, dated 2016).
Structures can show the parent of a compound that is named as a salt. Where two headings read alike, the source gives them in different places.

Legend:
[1] = target: BIR3 domain of XIAP (Homo sapiens (Human), UniProt P98170); assay: TR-FRET assay for BIR3: inhibition of binding of the XIAP BIR3 domain to Peptide A (SMAC-derived peptide)
Description: (§1) TR-FRET Assay for BIR2 and BIR3
(§2) The ability of a test compound to inhibit the binding of BIR2 and/or BIR3 domains of the XIAP protein to Peptide A (a SMAC-derived peptide described below) evidences that the test compound acts as a SMAC-mimetic resulting in reactivation of a cell's apoptotic pathway.
(§3) The peptides were labeled with the fluorescent tags FITC or TAMRA and Kd values were determined by fluorescence polarization assay. […] The peptide sequence was derivatized with biotin to provide […]-(ε-biotin)-OH 1:2 TFA as the substrate for the TR-FRET assay.
The sequence of the BIR3 domain used for the TR-FRET assay is […]
(§4) Ten nanomolar of 6× Histidine-tagged BIR2 domain, corresponding to amino acids 124-240 of XIAP, or BIR3 domain, corresponding to amino acids 241-356 of XIAP, was mixed with 20 nM of the peptide […]-(ε-biotin)-OH 1:2 TFA, in the presence of 50 mM Tris-Cl, pH 7.5, 100 mM NaCl, 1 mM dithiothreitol (DTT) and 0.1 mg/mL bovine serum albumin (BSA). Following a […] incubation at 37° C., Europium-Streptavidin and Allophycocyanin conjugated anti-Histidine antibody were added to a final concentration of 1.5 nM and 15 nM, respectively. Time-resolved fluorescence resonance energy transfer (TR-FRET) signals were measured 1 hour later at room temperature. Test compound potency was assessed at 10 serially diluted concentrations. Percentage of inhibition at each concentration was determined to generate an IC50 value for each test compound.

[2] = target: BIR2 domain of XIAP (Homo sapiens (Human), UniProt P98170, C202A/C213G); assay: TR-FRET assay for BIR2: inhibition of binding of the XIAP BIR2 domain to Peptide A (SMAC-derived peptide)
Chain of BIR2 domain of XIAP (P98170 other isoform, or with tags, fused parts or gaps, stated change not applied): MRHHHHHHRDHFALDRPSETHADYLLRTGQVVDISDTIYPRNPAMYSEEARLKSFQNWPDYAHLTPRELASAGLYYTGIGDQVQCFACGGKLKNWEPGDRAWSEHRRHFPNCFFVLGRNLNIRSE
Description: as §1, §2, §3
The XIAP protein sequence was obtained from the SWISS-PROT protein sequence database and the BIR2 and BIR3 domains were derived from that. The sequence of the BIR2 domain used for the TR-FRET assay is […].
as §4

[3] = 6x His-tagged BIR3 domain (aa 241-356 of XIAP), 10 nM, 20 nM Peptide A, TR-FRET, read-out: Ic50 BIR3
[4] = 6x His-tagged BIR2 domain (aa 124-240 of XIAP), 10 nM, 20 nM Peptide A, TR-FRET, read-out: Ic50 BIR2

Chain of BIR3 domain of XIAP (P98170 other isoform, or with tags, fused parts or gaps): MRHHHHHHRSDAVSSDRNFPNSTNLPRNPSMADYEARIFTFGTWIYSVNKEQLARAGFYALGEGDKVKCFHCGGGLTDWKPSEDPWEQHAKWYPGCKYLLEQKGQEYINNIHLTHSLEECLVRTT

CN[C@@H](C)C(=O)N[C@H](C(=O)N1c2ncccc2C[C@H]1CNC(=O)c1ccccc1)C(C)C [Example 1, N—{(S)-1-[(S)-3-Methyl-2-((S)-2-methylamino-propionylamino)-butyryl]-2,3-dihydro-1H-pyrrolo[2,3-b]pyridin-2-ylmethyl}-benzamide, hydrochloride]
IC50 [1, 3]: 53 µM
IC50 [2, 4]: 0.888 µM

CN[C@@H](C)C(=O)N[C@H](C(=O)N1c2ncccc2CC1CNC(C)=O)C(C)C (stereo partly drawn) [Example 2, (S)-N-{(S)-1-[2-(Acetylamino-methyl)-2,3-dihydro-pyrrolo[2,3-b]pyridine-1-carbonyl]-2-methyl-propyl}-2-methylamino-propionamide hydrochloride]
IC50 ([1]; read-out: Ic50 BIR3): > 54.8 µM
IC50 ([2]; read-out: Ic50 BIR2): 4.67 µM

CNC(=O)NCC1Cc2cccnc2N1C(=O)[C@@H](NC(=O)[C@H](C)NC)C(C)C (stereo partly drawn) [Example 3, (S)-2-Methylamino-N-((S)-2-methyl-1-{2-[(3-methyl-ureido)-methyl]-2,3-dihydro-pyrrolo[2,3-b]pyridine-1-carbonyl}-propyl)-propionamide hydrochloride]
IC50 [1, 3]: > 54.8 µM
IC50 [2, 4]: 4.88 µM

CN[C@@H](C)C(=O)N[C@H](C(=O)N1c2ncccc2C[C@H]1CNC(=O)Cc1ccccc1)C(C)C [Example 4, (S)-2-Methylamino-N-{(S)-2-methyl-1-[(S)-2-(phenylacetylamino-methyl)-2,3-dihydro-pyrrolo[2,3-b]pyridine-1-carbonyl]-propyl}-propionamide hydrochloride]
IC50 [1, 3]: > 54.8 µM
IC50 [2, 4]: 1.57 µM

CN[C@@H](C)C(=O)N[C@H](C(=O)N1c2ncccc2C[C@H]1CNC(=O)OC)C(C)C [Example 5, {(S)-1-[(S)-3-Methyl-2-((S)-2-methylamino-propionylamino)-butyryl]-2,3-dihydro-1H-pyrrolo[2,3-b]pyridin-2-ylmethyl}-carbamic acid methyl ester hydrochloride]
IC50 [1, 3]: > 54.8 µM
IC50 [2, 4]: 1.67 µM

CN[C@@H](C)C(=O)N[C@H](C(=O)N1c2ncccc2C[C@H]1CNC(=O)N(C)C)C(C)C [Example 6, (S)-N-{(S)-1-[(S)-2-(3,3-Dimethyl-ureidomethyl)-2,3-dihydro-pyrrolo[2,3-b]pyridine-1-carbonyl]-2-methyl-propyl}-2-methylamino-propionamide hydrochloride]
IC50 [1, 3]: > 54.8 µM
IC50 [2, 4]: 6.17 µM

CN[C@@H](C)C(=O)N[C@H](C(=O)N1c2ncccc2C[C@H]1CNC(=O)Nc1ccccc1)C(C)C [Example 7, (S)-2-Methylamino-N-((S)-2-methyl-1-{(S)-2-[(3-phenyl-ureido)-methyl]-2,3-dihydro-pyrrolo[2,3-b]pyridine-1-carbonyl}-propyl)-propionamide hydrochloride]
IC50 [1, 3]: > 54.8 µM
IC50 [2, 4]: 1.54 µM

CN[C@@H](C)C(=O)N[C@H](C(=O)N1c2ncccc2C[C@H]1CNC(=O)C(C)c1ccccc1)C(C)C (stereo partly drawn) [Example 8, (S)-2-Methylamino-N-((S)-2-methyl-1-{(S)-2-[(2-phenyl-propionylamino)-methyl]-2,3-dihydro-pyrrolo[2,3-b]pyridine-1-carbonyl}-propyl)-propionamide hydrochloride]
IC50 [1, 3]: > 54.8 µM
IC50 [2, 4]: 2.56 µM

CN[C@@H](C)C(=O)N[C@H](C(=O)N1c2ncccc2C[C@H]1CNS(C)(=O)=O)C(C)C [Example 9, (S)-N-{(S)-1-[(S)-2-(Methanesulfonylamino-methyl)-2,3-dihydro-pyrrolo[2,3-b]pyridine-1-carbonyl]-2-methyl-propyl}-2-methylamino-propionamide hydrochloride]
IC50 [1, 3]: > 54.8 µM
IC50 [2, 4]: 1.24 µM

CN[C@@H](C)C(=O)N[C@H](C(=O)N1c2ncccc2C[C@H]1CNS(=O)(=O)c1ccccc1)C(C)C [Example 10, (S)-N-{(S)-1-[(S)-2-(Benzenesulfonylamino-methyl)-2,3-dihydro-pyrrolo[2,3-b]pyridine-1-carbonyl]-2-methyl-propyl}-2-methylamino-propionamide hydrochloride]
IC50 [1, 3]: > 54.8 µM
IC50 [2, 4]: 0.82 µM

CN[C@@H](C)C(=O)N[C@H](C(=O)N1c2ncccc2C[C@H]1CNC(=O)OCc1ccccc1)C(C)C [Example 11, {(S)-1-[(S)-3-Methyl-2-((S)-2-methylamino-propionylamino)-butyryl]-2,3-dihydro-1H-pyrrolo[2,3-b]pyridin-2-ylmethyl}-carbamic acid benzyl ester]
IC50 [1, 3]: > 54.8 µM
IC50 [2, 4]: 1.05 µM

CN[C@@H](C)C(=O)N[C@H](C(=O)N1c2ncccc2C[C@H]1CNC(=O)Oc1ccccc1)C(C)C [Example 12, {(S)-1-[(S)-3-Methyl-2-((S)-2-methylamino-propionylamino)-butyryl]-2,3-dihydro-1H-pyrrolo[2,3-b]pyridin-2-ylmethyl}-carbamic acid phenyl ester hydrochloride]
IC50 [1]: > 54.8 µM
IC50 [2]: 1.62 µM

CN[C@@H](C)C(=O)N[C@H](C(=O)N1c2ncccc2C[C@H]1CNc1ccccc1)C(C)C [Example 13, (S)-2-Methylamino-N—[(S)-2-methyl-1-((S)-2-phenylaminomethyl-2,3-dihydro-pyrrolo[2,3-b]pyridine-1-carbonyl)-propyl]-propionamide, hydrochloride]
IC50 [1, 3]: 5.34 µM
IC50 [2, 4]: 0.307 µM

CN[C@@H](C)C(=O)N[C@H](C(=O)N1c2ncccc2C[C@H]1CNc1ccc2ccccc2c1)C(C)C [Example 14, (S)-2-methylamino-N—{(S)-2-methyl-1-[(S)-2-(naphthalen-2-ylaminomethyl)-2,3-dihydro-pyrrolo[2,3-b]pyridine-1-carbonyl]-propyl}-propionamide hydrochloride]
IC50 [1, 3]: 3.95 µM
IC50 [2, 4]: 0.506 µM
